The numbers were not newly measured in patent publication EP0970199B1, “FLUORESCENT PROTEIN SENSORS FOR DETECTION OF ANALYTES” (The Regents of the University of California, priority 1997, dated 1998), which cites them from elsewhere.

For the data set the following is noted: fluorescein in 0.1 N NaOH; 9-aminoacridine in water.

For the compound `Nc1c2ccccc2nc2ccccc12` [9-aminoacridine], the “quantum yield of standard” value is on record as 0.98.
